According to patent US20180265423A1, “Pesticide Dispersion in Concentrated Aqueous Fertilizer Solution” (priority 2014, published 2018):
Read-outs that look alike come from different tables or passages of the source.

Assays:
[1] = assay type: physicochemical; settings: for crystal growth in the fertilizer solutions tested: review of table 2
Text: Crystal formation in a suspension concentrate is a complex phenomenon. It is believed that if the solubility of the suspended solid chemical is high in the medium, the suspension concentrate is prone to form crystals of the suspended solid chemical in storage. […] The concentrations of the solid pesticides used in this example were low (at a typical ready-to-apply concentration range). If a solid pesticide forms crystals in such a low concentration, it is not suitable for a ready-to-apply pesticide suspension and mostly likely will not be suitable for a more concentrated suspension in fertilizer. […] By “not suitable” is meant that although it may work to some extent, it is not a good candidate for the pesticide SC.
Samples were prepared by adding the components followed by hand-shaking.

[2] = 30 wt % captan suspension in 10-34-0: flow and storage stability (Example 12); assay type: physicochemical
Description: (§1) 10-34-0 fertilizer (56% ammonium polyphosphate by Plant Food Company Inc.) and Phospholan PS-413 surfactant were combined in a container and mixed thoroughly. Captan fungicide was added to the mixture and then the resulting combination was homogenized. The components were added in amounts to provide a composition containing 69.3 wt % of the 10-34-0 fertilizer solution (56% solution), 1.0 wt % surfactant and 29.7 wt % Captan fungicide.

[3] = Use alone, dilution with water or dispersion of the suspensions into fertilizer concentrates; assay type: physicochemical; settings: 10-34-0, URAN 32, URAN 28 and 28-40% AMS
[4] = Quick screening of crystal growth potential in fertilizer concentrates and water, solid pesticides containing a carboxylic acid group (Example 2); assay type: physicochemical; settings: for suitability for suspension in fertilizer solutions: review of table 3; for Comment: crystal growth: between 0 C. and 40 C.
Description: Samples were prepared by adding the components followed by hand-shaking. Samples were placed at 0° C. and observation was made after 1 day, unless otherwise specified.

[5] = as above; assay type: physicochemical; settings: 1 wt % powder pesticide, 98 wt % 10-34-0, 1 wt % Witcolate D-510; between 0 C. and 40 C.
[6] = assay type: physicochemical
Description: as §1, with “poly phosphate” for “polyphosphate”, “HE-6614” for “PS-413”, “Trifloxystrobin” for “Captan”, “62.38” for “69.3”, “[…]” for “29.7”

[7] = Suspension of clothianidin in 10-34-0 aqueous fertilizer, effect of concentration on stability (Example 3); assay type: physicochemical; settings: review of table 4
Description: Various amounts of clothianidin were added to 10-34-0 fertilizer. Samples were shaken by hand until homogeneous.

[8] = Storage stability of 40% clothianidin SC in 10-34-0 with wetting agent Witcolate D-510 (Example 5); assay type: physicochemical; settings: 10-34-0 with Witcolate D-510
Description: The test samples were prepared by adding 60 grams of 10-34-0 fertilizer (from Plant Food) to a bottle. Then various amounts of Witcolate D-510 (2-ethylhexyl sulfate) were added to the 10-34-0 fertilizer and mixed well. Finally, 40 grams of clothianidin (technical grade) was added to the mixture and mixed well by shaking by hand.

[9] = Stability of 50% clothianidin in 50% URAN 32 fertilizer (Example 6); assay type: physicochemical
Description: 0.5 g Witcolate D-510 surfactant was added into 100 g URAN 32 fertilizer solution (50 wt % URAN 32 in water). […] Then 100 g clothianidin was added to the resulting solution and mixed well by hand-shaking. This sample was stable and had about 10% top clear with a smooth bottom suspension after 2 weeks at 40° C.
(§2) In other experiments, 0.3% of a pH adjusting agent (40 wt % Citric acid), was included in the SC sample (homogenized sample) and no noticeable effect was observed on stability. Viscosity measurements were made with a Brookfield viscometer at various speeds (rpm) at room temperature with a #64 spindle. This sample was very viscous but it was highly shear-thinning.

[10] = Brookfield viscosity of 50% clothianidin in 50% URAN 32; assay type: physicochemical; settings: #64 spindle
Text: as §2

[11] = 1 wt % powder pesticide in 99 wt % 10-34-0, no wetting agent
[12] = 1 wt % powder pesticide in 99 wt % 40% AMS, no wetting agent
[13] = 1 wt % powder pesticide in 99 wt % URAN 32, no wetting agent
[14] = 1 wt % powder pesticide in 99 wt % Water, no wetting agent
[15] = same SC, after a week at 50° C.
[16] = 1 wt % powder pesticide, 98 wt % 10-34-0, 1 wt % Witcolate D-510
[17] = powder pesticide (glyphosate acid 2, 2,4-D acid 1.3, others 1 wt %) in 10-34-0, no wetting agent
[18] = powder pesticide (glyphosate acid 2, 2,4-D acid 1.3, others 1 wt %) in 10-34-0, no wetting agent, 0° C., 1 day unless otherwise specified
[19] = powder pesticide (glyphosate acid 2, 2,4-D acid 1.3, others 1 wt %) in 40% AMS, no wetting agent, 0° C., 1 day unless otherwise specified
[20] = powder pesticide (glyphosate acid 2, 2,4-D acid 1.3, others 1 wt %) in URAN 32, no wetting agent, 0° C., 1 day unless otherwise specified
[21] = 1 wt % powder pesticide, 98 wt % 40% AMS, 1 wt % Witcolate D-510
[22] = 1 wt % powder pesticide, 98 wt % URAN 32, 1 wt % Witcolate D-510
[23] = 1 wt % powder pesticide, 98 wt % Water, 1 wt % Witcolate D-510

## O=C1C2CC=CCC2C(=O)N1SC(Cl)(Cl)Cl (centres unmarked) [Captan]
[1]; [11]
  Comment: powder sank or floated: 0-40 °C Powder sank.
  Comment: suitability: Suitable
[1]; [12]
  Comment: powder sank or floated: 0-40 °C Powder sank.
  Comment: suitability: Suitable
[1]; [13]
  Comment: powder sank or floated: 0-40 °C Powder sank.
  Comment: suitability: Suitable
[1]; [14]
  Comment: powder sank or floated: 0-40 °C Powder sank.
  Comment: suitability: Suitable
[1]
  crystal growth in the fertilizer solutions tested: did not have crystal growth
[2]; 29.7 wt % Captan, 69.3 wt % 10-34-0 solution, 1.0 wt % Phospholan PS-413, homogenized
  flow and stability of the resulting SC: easily flowable and stable
[2]; same SC, 2° C.
  flow at 2° C.: still able to flow
[2]; [15]
  phase separation: no visible phase separation
[3]; 29.7 wt % Captan SC in 10-34-0, gentle stirring
  used alone, diluted with water, dispersed to a fertilizer concentrate: without forming crystals or coagulation

## O=C(O)c1nc(Cl)ccc1Cl [Clopyralid]
[4]; [16]
  Comment: suitability: Suitable
[4]; [17]
  Comment: suitability: Suitable
[4]; [18]
  Comment: crystal growth or other change: No crystal growth
  Comment: dissolution: Not dissolved
  Comment: powder sank or floated: Powder floated
[4]; [19]
  Comment: crystal growth or other change: Crystal growth at room temp
  Comment: dissolution: Not dissolved
  Comment: powder sank or floated: Powder sank
[4]; powder pesticide (glyphosate acid 2, 2,4-D acid 1.3, others 1 wt %) in URAN 32, no wetting agent
  Comment: suitability: Not suitable
[4]; [20]
  Comment: dissolution: Dissolved
[4]; powder pesticide (glyphosate acid 2, 2,4-D acid 1.3, others 1 wt %) in Water, no wetting agent
  Comment: suitability: Not suitable
[4]; powder pesticide (glyphosate acid 2, 2,4-D acid 1.3, others 1 wt %) in Water, no wetting agent, 0° C., 1 day unless otherwise specified
  Comment: dissolution: Dissolved
[4]
  suitability for suspension in fertilizer solutions: may not be suitable
[5]
  Comment: crystal growth: No crystal growth between 0 C.

## Nc1c(Cl)c(Cl)nc(C(=O)O)c1Cl [Picloram]
[4]; [16]
  Comment: suitability: some floated. Suitable
[4]; [21]
  Comment: powder sank or floated: Powder sank
  Comment: suitability: Suitable
  Comment: crystal growth: No crystal growth between 0 C.
[4]; [22]
  Comment: powder sank or floated: Powder sank
  Comment: suitability: Suitable
  Comment: crystal growth: No crystal growth between 0 C.
[4]; [23]
  Comment: powder sank or floated: Powder sank
  Comment: suitability: Suitable
  Comment: crystal growth: No crystal growth between 0 C.
[4]; [17]
  Comment: suitability: Suitable
[4]; [18]
  Comment: crystal growth or other change: No crystal growth between 0 C.
  Comment: powder sank or floated: Powder sank
[4]; powder pesticide (glyphosate acid 2, 2,4-D acid 1.3, others 1 wt %) in 40% AMS, no wetting agent
  Comment: suitability: Suitable
[4]; [19]
  Comment: crystal growth or other change: No crystal growth between 0 C.
  Comment: powder sank or floated: Powder sank
[4]; [20]
  Comment: dissolution: Powder almost dissolved
[4]
  suitability for suspension in fertilizer solutions: appears to be suitable
[5]
  Comment: crystal growth: No crystal growth between 0 C.

## CON=C(C(=O)OC)c1ccccc1CON=C(C)c1cccc(C(F)(F)F)c1 [Trifloxystrobin]
[1]; [11]
  Comment: powder sank or floated: 0-40 °C Powder sank.
  Comment: suitability: Suitable
[1]; [12]
  Comment: powder sank or floated: 0-40 °C Powder sank.
  Comment: suitability: Suitable
[1]; [13]
  Comment: powder sank or floated: 0-40 °C Powder sank.
  Comment: suitability: Suitable
[1]; [14]
  Comment: powder sank or floated: 0-40 °C Powder sank.
  Comment: suitability: Suitable
[1]
  crystal growth in the fertilizer solutions tested: did not have crystal growth
[3]; 36.63 wt % Trifloxystrobin SC in 10-34-0
  used alone, diluted with water, dispersed to a fertilizer concentrate: without forming crystal and coagulation
[6]
  flow and stability of the resulting SC: easily flowable and stable
[6]; same SC, 2° C.
  flow at 2° C.: still able to flow
[6]; [15]
  clear phase at the bottom: less than 2.5%
[6]; same SC, after a week at 50° C., inverting the container
  re-mixing: remixed easily

## CN/C(=N\[N+](=O)[O-])NCc1cnc(Cl)s1 [clothianidin]
[7]
  suspension of the powder in 10-34-0: without crystal formation and without coagulation
[8]
  clothianidin concentration above which the SC was difficult to prepare: greater than 40 wt %
[9]; 100 g clothianidin, 100 g URAN 32 fertilizer solution, 0.5 g Witcolate D-510, hand-shaking
  stability: stable
[9]; URAN 32, all concentrations
  behaviour of the solid in URAN 32: sank to the bottom at all concentrations
[9]; URAN 32 system
  clothianidin concentration above which a paste resulted: higher than 55 wt %
[9]; same composition, homogenization method
  separation: did not show noticeable separation
[9]; same sample, hand-shaking, after 2 weeks at 40° C.
  top clear: about 10%
[10]; 1 RPM
  Viscosity, mPa-s, 24° C.: 10200 mPa-s
[10]; 2 RPM
  Viscosity, mPa-s, 24° C.: 6900 mPa-s
[10]; 4 RPM
  Viscosity, mPa-s, 24° C.: 3900 mPa-s
[10]; 10 RPM
  Viscosity, mPa-s, 24° C.: 2300 mPa-s
[10]; 20 RPM
  Viscosity, mPa-s, 24° C.: 1500 mPa-s
[10]; 50 RPM
  Viscosity, mPa-s, 24° C.: 1300 mPa-s
[10]; 100 RPM
  Viscosity, mPa-s, 24° C.: 1200 mPa-s
